Measurements as given in patent publication US20100160369A1, “S1P1 Agonists and Methods of Making And Using” (EXELIXIS, INC., priority 2008, published 2010).

What was measured:
hS1P1R (hEdg1) = target: T1, hS1P1R (hEdg1) (Homo sapiens, UniProt P21453); experiment: hS1P1R GTPγS Binding Assay (Assay 3a); assay type: biochemical
T1 construct: purchased Lonza
In short: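 Human S1P1 receptor membranes (4 μg) incubated 1 h at room temperature with 30 μM GDP, 0.1 nM [35S]GTPγS, 0.25% fatty-acid-free BSA and serially diluted agonist in pH 7.9 Tris buffer with Mg2+ and EGTA. Bound radioactivity read by WGA SPA after a further 1 h; EC50 reported unless noted.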

S1P1 [1] = target: T2, S1P1 (Homo sapiens, UniProt P21453); experiment: DELFIA GTP-Eu Binding Assay (Assay 3b); assay type: biochemical; design: purchased Lonza; host or cells: CHO cell membranes
Procedure: The DELFIA GTP-Eu binding assay (PerkinElmer) is a time-resolved fluorometric assay based on GDP-GTP exchange. CHO cell membranes (Lonza) expressing human S1P1 were incubated in 96-well filter plates (Pall, East Hills, N.Y.) in a final volume of 100 μL/well buffer containing 40 μg/mL membrane, 50 mM HEPES, 2 μM GDP, 10 mM MgCl2, 100 mM NaCl, 500 μg/mL Saponin and test compound. Test compounds were tested at maximum concentrations of 10 μM. Compounds were diluted (10 concentration points, 3-fold each) and added to the assay plate at a 1% final DMSO concentration. For each compound, there were duplicate assay plates and each assay plate had duplicate wells per concentration point. The plates were incubated for 30 min at room temperature on a plate shaker at low speed. GTP-Eu was added to each well (10 μL, 10 nM final concentration) and the plate was incubated for an additional 30 min with slow shaking The wells were washed with ice cold GTP washing buffer (3×150 μL) using a vacuum manifold and the assay plates read in an EnVision plate reader (PerkinElmer) at an excitation wavelength of 340 nm and an emission wavelength of 615 nm. To determine agonist activity, percent activity was calculated as [(test compound−background)/(positive control−background)*100], where background is the fluorescence in absence of compound and the positive control is the fluorescence from membranes incubated with 1 μM S1P (Avanti). The percent activities were plotted against compound concentration to determine IC50 or EC50 using XLFit (IDBS).
Assay 1 is the CNG cAMP Assay as described in Biological Example 1. Assay 2a and 2b are the Tango™ β-arrestin Recruitment Assay in HEK293 and U2OS cells, respectively, as described in Biological Example 2. Assay 3a is the hS1P1R GTPγS Binding Assay as described in Biological Example 3. Assay 3b is the GTP-Eu Binding Assay as described in Biological Example 3. EC50's were measured unless otherwise noted. […] In the table, “nt” means the Compound was not tested and “no” means the compound was tested but had no measurable activity under the assay conditions employed.
Target sequence in this assay (P21453 whole entry): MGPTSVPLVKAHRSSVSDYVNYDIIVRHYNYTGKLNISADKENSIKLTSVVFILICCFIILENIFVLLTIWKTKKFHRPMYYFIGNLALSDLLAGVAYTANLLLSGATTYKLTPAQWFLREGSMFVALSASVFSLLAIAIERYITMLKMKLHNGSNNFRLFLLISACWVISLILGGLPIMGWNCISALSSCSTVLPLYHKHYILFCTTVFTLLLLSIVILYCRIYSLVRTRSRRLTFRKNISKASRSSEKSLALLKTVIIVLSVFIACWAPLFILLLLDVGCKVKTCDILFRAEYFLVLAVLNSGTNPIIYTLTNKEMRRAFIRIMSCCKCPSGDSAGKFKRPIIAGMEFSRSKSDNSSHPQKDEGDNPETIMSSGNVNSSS

S1P1 [2] = target: T2, S1P1; experiment: CNG cAMP Assay (Assay 1); assay type: cell-based; design: host or cells: HEK293 cells expressing the CNG channel; conditions: read-out: Assay 1 EC50
In short: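 cAMP-gated CNG membrane-potential read-out (350/590 nm, T90/T0 ratio) in S1P1/CNG HEK293 cells after 90 min with compound plus NECA 500 nM, S1P 10 nM (EC95), Ro 20-1724 25 μM. Ten 3-fold points from 10 μM, 1.8% DMSO; percent activity vs NECA-only control gives EC50.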
Target sequence in this assay (P21453 whole entry): as above

S1P1 [3] = target: T2, S1P1; experiment: Tango β-arrestin Recruitment Assay in HEK293 cells (Assay 2a); assay type: cell-based; design: linker with TEV protease (N1a) cleavage site (C); host or cells: HEK293, transiently transfected; conditions: Tango β-arrestin Recruitment Assay, read-out: Assay 2a EC50
In short: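 Agonist-driven β-arrestin2–TEV recruitment releases tTA to drive luciferase in transiently transfected HEK293 cells. Ten 3-fold dilutions from 10 μM top (1% DMSO), 16–18 h at 37 °C; EC50 fitted to percent activity versus DMSO background and 5 μM S1P efficacy control.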
Target sequence in this assay (P21453 whole entry): as above
Target sequence in this assay (P32121 whole entry partner): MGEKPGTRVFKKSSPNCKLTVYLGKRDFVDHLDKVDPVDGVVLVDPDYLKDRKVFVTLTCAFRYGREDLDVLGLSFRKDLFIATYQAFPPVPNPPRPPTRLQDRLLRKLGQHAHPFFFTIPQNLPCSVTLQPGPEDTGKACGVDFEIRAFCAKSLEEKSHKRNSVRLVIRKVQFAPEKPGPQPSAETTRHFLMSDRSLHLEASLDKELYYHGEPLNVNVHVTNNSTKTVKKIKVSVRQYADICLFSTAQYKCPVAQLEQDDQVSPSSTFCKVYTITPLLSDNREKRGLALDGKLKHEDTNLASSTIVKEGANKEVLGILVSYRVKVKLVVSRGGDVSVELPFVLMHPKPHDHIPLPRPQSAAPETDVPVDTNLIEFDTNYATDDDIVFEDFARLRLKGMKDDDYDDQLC

S1P1 [4] = target: T2, S1P1; experiment: Tango β-arrestin Recruitment Assay in U2OS cells (Assay 2b); assay type: cell-based; design: linker with TEV protease (N1a) cleavage site (C); conditions: Tango β-arrestin Recruitment Assay, read-out: Assay 2b EC50
In short: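 Agonist EC50 from percent activity relative to 1 μM S1P efficacy control, using background-subtracted 460/530 nm emission ratios. Compounds (max 1 μM, ten 3-fold dilutions) incubated overnight at 37 °C with serum-starved S1P1 U2OS reporter cells, followed by 2 h β-lactamase reagent at room temperature.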
Target sequence in this assay (P21453 whole entry): as the sequence (P21453 whole entry) above
Target sequence in this assay (P32121 whole entry partner): as the sequence (P32121 whole entry partner) above

T1 sequence (P21453 whole entry): as the sequence (P21453 whole entry) above

Structure (SMILES)	EC50 (hS1P1R (hEdg1))	EC50 (S1P1 [1]; read-out: Assay 3b EC50)	EC50 (S1P1 [2])	EC50 (S1P1 [3])	EC50 (S1P1 [1]; relative EC50 was measured (footnote 1), read-out: Assay 3b Relative EC50)	EC50 (S1P1 [4])	EC50 (S1P1 [1]; footnote 1: Relative EC50 was measured, read-out: Assay 3b Relative EC50)
NCCOc1ccc(-c2nnc(-c3cn4cc(C(F)(F)F)cc(Cl)c4n3)s2)c(Cl)c1 [Example 244, 2-[(3-chloro-4-{5-[8-chloro-6-(trifluoromethyl)imidazo[1,2-a]pyridin-2-yl]-1,3,4-thiadiazol-2-yl}phenyl)oxy]ethanamine]	0.1 to 0.5 µM	0.5 to 1 µM	≤ 0.1 µM	0.1 to 0.5 µM	–	–	–
O=C(O)CCc1ccc(-c2noc(-c3cn4cc(C(F)(F)F)cc(Cl)c4n3)n2)cc1Cl [Entry 7]	1 to 5 µM	–	≤ 0.1 µM	≤ 0.1 µM	0.1 to 0.5 µM	–	–
O=C(O)CCc1ccc(-c2nnc(-c3cn4cc(C(F)(F)F)cc(Cl)c4n3)s2)c(Cl)c1 [Example 283, 3-(3-chloro-4-{5-[8-chloro-6-(trifluoromethyl)imidazo[1,2-a]pyridin-2-yl]-1,3,4-thiadiazol-2-yl}phenyl)propanoic acid]	0.1 to 0.5 µM	0.1 to 0.5 µM	≤ 0.1 µM	≤ 0.1 µM	–	–	–
Cc1c(I)ccc2nc(-c3nc(-c4cc(F)c(CCC(=O)O)cc4Cl)no3)cn12 [Example 300, 3-{5-chloro-2-fluoro-4-[5-(6-iodo-5-methylimidazo[1,2-a]pyridin-2-yl)-1,2,4-oxadiazol-3-yl]phenyl}propanoic acid]	1 to 5 µM	0.1 to 0.5 µM	≤ 0.1 µM	≤ 0.1 µM	–	–	–
CS(=O)(=O)Nc1ccc(-c2nnc(-c3cn4cc(C(F)(F)F)cc(Cl)c4n3)s2)c(Cl)c1 [Example 239, N-(3-chloro-4-{5-[8-chloro-6-(trifluoromethyl)imidazo[1,2-a]pyridin-2-yl]-1,3,4-thiadiazol-2-yl}phenyl)methanesulfonamide]	–	0.1 to 0.5 µM	≤ 0.1 µM	≤ 0.1 µM	–	≤ 0.1 µM	–
O=C(O)CC(O)c1ccc(-c2noc(-c3cn4cc(C(F)(F)F)cc(Cl)c4n3)n2)c(Cl)c1 (centres unmarked) [Example 139, 3-(3-chloro-4-{5-[8-chloro-6-(trifluoromethyl)imidazo[1,2-a]pyridin-2-yl]-1,2,4-oxadiazol-3-yl}phenyl)-3-hydroxypropanoic acid]	–	–	≤ 0.1 µM	≤ 0.1 µM	–	–	0.1 to 0.5 µM
Cc1cc(C2CC2C(=O)O)c(F)cc1-c1noc(-c2cn3cc(C(F)(F)F)cc(Cl)c3n2)n1 (centres unmarked) [Example 79, 2-(4-{5-[8-chloro-6-(trifluoromethyl)imidazo[1,2-a]pyridin-2-yl]-1,2,4-oxadiazol-3-yl}-2-fluoro-5-methylphenyl)cyclopropanecarboxylic acid]	0.5 to 1 µM	0.1 to 0.5 µM	≤ 0.1 µM	≤ 0.1 µM	–	–	–
CC(CO)Oc1cc(Cl)c(-c2noc(-c3cn4cc(C(F)(F)F)cc(Cl)c4n3)n2)cc1F (centres unmarked) [Example 259, 2-[(5-chloro-4-{5-[8-chloro-6-(trifluoromethyl)imidazo[1,2-a]pyridin-2-yl]-1,2,4-oxadiazol-3-yl}-2-fluorophenyl)oxy]propan-1-ol]	≤ 0.1 µM	0.1 to 0.5 µM	≤ 0.1 µM	≤ 0.1 µM	–	–	–

Second part, the molecule after the results:

EC50 (hS1P1R (hEdg1))	EC50 (S1P1 [1]; read-out: Assay 3b EC50)	EC50 (S1P1 [2])	EC50 (S1P1 [3])	EC50 (S1P1 [1]; relative EC50 was measured (footnote 1), read-out: Assay 3b Relative EC50)	EC50 (S1P1 [4])	EC50 (S1P1 [1]; footnote 1: Relative EC50 was measured, read-out: Assay 3b Relative EC50)	Structure (SMILES)
≤ 0.1 µM	0.1 to 0.5 µM	≤ 0.1 µM	≤ 0.1 µM	–	–	–	C[C@@H](CO)Oc1cc(Cl)c(-c2noc(-c3cn4cc(C(F)(F)F)cc(Cl)c4n3)n2)cc1F [Example 96, (2S)-2-[(5-chloro-4-{5-[8-chloro-6-(trifluoromethyl)imidazo[1,2-a]pyridin-2-yl]-1,2,4-oxadiazol-3-yl}-2-fluorophenyl)oxy]propan-1-ol]
0.5 to 1 µM	0.1 to 0.5 µM	≤ 0.1 µM	≤ 0.1 µM	–	–	–	CC(CO)Oc1ccc(-c2noc(-c3cn4cc(C(F)(F)F)cc(Cl)c4n3)n2)c(Cl)c1 (centres unmarked) [Example 256, 2-[(3-chloro-4-{5-[8-chloro-6-(trifluoromethyl)imidazo[1,2-a]pyridin-2-yl]-1,2,4-oxadiazol-3-yl}phenyl)oxy]propan-1-ol]
–	0.1 to 0.5 µM	≤ 0.1 µM	≤ 0.1 µM	–	0.1 to 0.5 µM	–	NCCOc1ccc(-c2noc(-c3cn4cc(C(F)(F)F)cc(Cl)c4n3)n2)c(Cl)c1 [Example 257, 2-[(3-chloro-4-{5-[8-chloro-6-(trifluoromethyl)imidazo[1,2-a]pyridin-2-yl]-1,2,4-oxadiazol-3-yl}phenyl)oxy]ethanamine]
≤ 0.1 µM	0.1 to 0.5 µM	≤ 0.1 µM	≤ 0.1 µM	–	–	–	Cc1cc(-c2noc(-c3cn4cc(C(F)(F)F)cc(Cl)c4n3)n2)cc(C)c1OCC(O)CO (centres unmarked) [Example 161, 3-[(4-{5-[8-chloro-6-(trifluoromethyl)imidazo[1,2-a]pyridin-2-yl]-1,2,4-oxadiazol-3-yl}-2,6-dimethylphenyl)oxy]propane-1,2-diol]
